Key:
Capan-2 = test: Cell viability assay (MTT), Capan-2; format: cell-based
Experimental: (§1) Cells in exponential growth phase were seeded in a 96 well plate at a concentration of 50,000 cell/well. The cells were allowed to attach to the wells for 24 h at 37° C., 5% CO2, then the culture medium was removed and 100 μL new culture medium containing 1 at gradient concentrations was placed into each well. After culturing at 37° C., 5% CO2 for desired time, each well was added by 10 μL of 5 mg/mL MTT 43-(4,5-Dimethylthiazol-2-yl)-2,5-diphenyltetrazolium bromide), and the plated cells were incubate at dark for 4 h. 100 μL 10% SDS with 0.01 M HCl was added to each well to stop the reduction reaction and to dissolve the purple. After incubation of the cells at 37° C. for overnight, the viability is measured. Data represent the mean±standard deviation of three independent experiments.
(§2) The estimation of the threshold concentration of aggregation (320-340 μM) for 1 allows us to examine the cytotoxicity of 1 in monomer and molecular aggregate forms. We first tested the cytotoxicity of 1 towards HeLa cells, the most widely studied cancer cell line, below and above the threshold concentration.

MES-SA = test: Cell viability assay (MTT), MES-SA; format: cell-based
Experimental: as §1, §2

HeLa tumors = test: Xenograft mouse model, HeLa tumors, peritumoral injection; format: in vivo, Nu/nu mice
Experimental: FIG. 2 depicts the cytotoxicity of 1. Cell viability assay (MTT) of HeLa cells after 24 and 48 h of treatment with (a) as prepared or (b) filtered medium containing different concentrations of 1. Also shown are MTT assays of 1 towards (c) MCF 7, (d) HepG2, (e) T98G and (f) PC12 cell lines. Data are presented as mean±SD of three independent experiments. (g) Tumor progression curves of mice bearing HeLa tumors. 0.1 mL of 1 at 5 mM or 0.5 mM in PBS buffers or just PBS buffer as control (six doses, starting day 1) was subcutaneous peritumorally injected every three days. Data are presented as mean±SD of relative tumor volume (n=4 for treatment groups and n=3 for control group). *p<0.05, by Student's t test. (at day 19, 5 mM=bottom data point; 0.5 mM=middle data point; control=top data point). (h) A representative image to show the mice, started with similar initial tumor volume (V0), from each group on 19th day of treatment. White arrows point at tumor. See also FIG. 9, FIG. 10, and FIG. 11.
Nu/nu mice were injected with HeLa cells (5×10^6) subcutaneously for tumor development. Treatment was started when average tumor size reached 30 mm^3. Mice were divided into three groups. One group (n=3) received 0.1 mL PBS buffer as control, the other two groups (n=4) received 0.1 mL of 1 at 5 mM or 0.5 mM. Six doses were given every three days starting day 1. Progression of tumor was monitored until 19th day of the treatment.
To further assess the inhibitory effect of molecular aggregates of 1 to cancer cells, we inoculated HeLa cells on nude mice and treated the xenograft tumors with molecular aggregates of 1 by peritumoral injection.

PC12 cells = test: Intracellular concentration of 1 in PC12 cells by LC-MS; format: cell-based; conditions: 12 h at 37° C.
Experimental: FIG. 10 depicts the long term cytotoxicity of 1 on PC12 cells. Related to FIG. 2. (a) MTT viability test of cell incubated with gradient concentration of 1 for up to 7 days without changing medium. Data are presented as mean±SD of three independent experiments. (b) Intracellular concentration of 1 in PC12 cells treated with 1 for 12 h at 37° C. measured by LC-MS (left bar=400 μM; right bar=300 μM). (c) Cells were subcultured and re-seeded with new medium containing the same concentration of 1 (0 for control group and 400 μM for test group) every 4 days. Data are presented as mean±SD of three independent experiments.
FIG. 21 depicts the intracellular concentration of 1 in PC12 and T98G cells after incubation with 400 μM of 1 for 12 h. Cells in exponential growth phase were seeded in a 10 cm petri dish at 10,000 cell/mL. The cells were allowed to attach for 24 h at 37° C., 5% CO2. The culture medium was removed, and new culture medium containing 1 at 0 or 400 μM was added. After 12 h of incubation, cells were washed with PBS buffer 3 times and collected by cell scraper with 1 mL of PBS buffer. The cell suspension was centrifuged at 600 g for 5 min to obtain a cell pellet. 10 μL of the cell pellet were lysed in 200 μL of water and 200 μL of MeOH. […] The concentration of 1 in the lysate was measured by LC-MS.

microtubules = molecular target: T1, microtubules (Sus scrofa, UniProt P02550+P02554); test: Addition of 1 to fully assembled microtubules; format: biochemical; conditions: final concentration 200 to 500 μM, added after 60 min polymerization
T1 construct: purchased Cytoskeleton
Excerpt: Tubulin polymerization assay in the presence of 1. In vitro tubulin polymerization reactions in (a) as prepared or (c) filtered reaction cocktail without 1 (control) or with different concentrations of 1. The amount of microtubule is in proportion to optical density at 340 nm. The calculated polymerization rate (Vmax) and the final tubulin polymer mass vs concentrations of 1 from tubulin polymerization in (b) as prepared or (d) filtered reaction cocktail. Negative stained TEM images of molecular aggregates of 1 binding with tubulin. Buffer (control) or 1 (final concentration at 200 to 500 μM) was introduced into reaction cocktail containing fully assembled microtubule (after 60 min of polymerization). The amount of microtubule remain unchanged after 30 min. (e) Molecular aggregates of 1 (400 μM) incubated with tubulins heterodimers in general tubulin buffer. Scale bar=40 nm. White arrows point at tubulin clusters on the molecular aggregates of 1. […]
Microtubules are highly dynamic, growing and shrinking at a constant rate. To determine whether molecular aggregates of 1 achieve the inhibition of microtubule formation through preventing microtubule growth or accelerating microtubule shrinkage, we applied 1 to the polymerization mixture after most of tubulin heterodimers already formed microtubules (60 min of pre-incubation) and monitored the change of microtubules.

T1 sequence (P02550 whole entry): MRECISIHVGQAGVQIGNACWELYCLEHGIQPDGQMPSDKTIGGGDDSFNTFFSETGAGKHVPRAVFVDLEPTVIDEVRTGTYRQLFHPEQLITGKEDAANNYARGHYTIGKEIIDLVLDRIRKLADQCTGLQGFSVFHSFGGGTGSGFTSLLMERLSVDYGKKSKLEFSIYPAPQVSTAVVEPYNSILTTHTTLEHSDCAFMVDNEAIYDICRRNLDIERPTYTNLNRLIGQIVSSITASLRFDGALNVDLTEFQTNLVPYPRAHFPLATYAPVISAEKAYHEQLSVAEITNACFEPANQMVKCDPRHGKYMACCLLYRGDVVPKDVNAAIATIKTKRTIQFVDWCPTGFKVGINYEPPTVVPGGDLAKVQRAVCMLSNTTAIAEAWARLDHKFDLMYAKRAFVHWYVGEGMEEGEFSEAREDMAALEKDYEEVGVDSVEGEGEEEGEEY
T1 sequence (P02554 whole entry): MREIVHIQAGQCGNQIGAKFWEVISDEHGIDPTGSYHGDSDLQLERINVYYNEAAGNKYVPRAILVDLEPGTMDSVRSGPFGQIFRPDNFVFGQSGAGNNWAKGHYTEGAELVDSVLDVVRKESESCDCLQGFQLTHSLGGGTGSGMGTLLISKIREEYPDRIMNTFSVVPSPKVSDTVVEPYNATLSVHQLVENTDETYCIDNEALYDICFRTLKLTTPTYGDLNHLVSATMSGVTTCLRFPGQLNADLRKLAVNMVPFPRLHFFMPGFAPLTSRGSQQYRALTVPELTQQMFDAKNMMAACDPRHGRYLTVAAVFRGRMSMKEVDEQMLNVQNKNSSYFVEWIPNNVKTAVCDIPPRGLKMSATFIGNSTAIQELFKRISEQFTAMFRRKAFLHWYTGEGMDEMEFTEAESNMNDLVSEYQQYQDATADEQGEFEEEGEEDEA

With `O=C(Cc1ccc2ccccc2c1)N[C@@H](Cc1ccccc1)C(=O)N[C@@H](Cc1ccccc1)C(=O)O` [Compound 1] the “cytotoxicity towards Capan-2” value (Capan-2) was “decreases of cell viabilities only observed at 400 and 500 μM”, the “cytotoxicity towards MES-SA” value (MES-SA) was “decreases of cell viabilities only observed at 400 and 500 μM” and the “effect on tumor growth” value (HeLa tumors; 0.5 mM (~1 mg/kg), 0.1 mL peritumoral, every three days) was “little effect on tumor growth”. For the same molecule, the “surface of the skin covering and around the tumor” value (HeLa tumors; 5 mM) was “intact (with no ulceration or sclerosis)”, the “effect on tumor progression” value (HeLa tumors; 5 mM (~10 mg/kg), 0.1 mL peritumoral, every three days) was “starts to inhibit tumor progression after 10th day of treatment” and the “tumor size versus 0.5 mM group and control group” value (HeLa tumors; 5 mM, 19th day of treatment) was “significantly smaller”. The body weight change (HeLa tumors; 0.1 mL of 5 mM or 0.5 mM) was “no significant weight loss or weight gain”, the “accumulation of 1 in PC12 cells versus HeLa cells” value (PC12 cells) was “much less amount of 1 than HeLa cells do” and the “loss of preformed microtubules” value (microtubules) was “little notable loss of microtubules”.
